# Results reported in article PMC12669040, “Tumour-specific STING agonist synthesis via a two-component prodrug system” (Nature Chemistry, 2025).
# Values joined by “and” are separate entries in the source; they are usually repeats but may differ in a detail not shown here. Equal values may be shown once.
# Key:
# [1] = Colorimetric alkylation rate constant assay with thiol N1; type: physicochemical
# [2] = Competition assay: N1–E4 dimerization in the presence of competitors C1–6 (HPLC); type: physicochemical; details: equimolar E4, competitor and N1, 50 μM each
# [3] = Colorimetric alkylation rate constant assay with TNB^2− as non-specific thiol; type: physicochemical; set-up: second-order: unit not given here; details: [B]0 = 250, Replicates 1-3
# THP-1 Lucia ISG cells = experiment: β-Glucuronidase-specific STING activation, cytokine secretion assays; type: cell-based, human; details: 25 μM each, with β-glucuronidase 250 units ml^−1, 24 h
# Protocol: THP-1 Lucia ISG cells were maintained as described above. On the day of the experiment, cells were pelleted (150g, 10 min) and resuspended in the growth medium (40% conditioned) at a density of 1 × 10^6 cells ml^−1. […] The supernatants were collected, aliquoted and frozen at −20 °C for future analysis. […] Data were analysed by two-tailed Welch’s t-test (GraphPad Prism).
smiles,measurement,setting,value
O=C(CCl)Nc1cc(C(F)(F)F)cc(C(F)(F)F)c1 [Compound C1],second-order,"[1]; Replicate 1, time 576 sec, second-order plot value",0.007537
same,second-order,"[1]; Replicate 1, time 606 sec, second-order plot value",0.007697
same,second-order,"[1]; Replicate 2, time 576 sec, second-order plot value",0.007533
same,second-order,"[1]; Replicate 2, time 606 sec, second-order plot value",0.00792
same,second-order,"[1]; Replicate 3, time 576 sec, second-order plot value",0.007357
same,second-order,"[1]; Replicate 3, time 606 sec, second-order plot value",0.007639
same,second-order,"[1]; time 0 sec, replicates 1-3",0.001153 and 0.001059 and 0.00116
same,second-order,"[1]; time 30 sec, replicates 1-3",0.001608 and 0.001493 and 0.001543
same,second-order,"[1]; time 60 sec, replicates 1-3",0.001966 and 0.001867 and 0.001909
same,second-order,"[1]; time 91 sec, replicates 1-3",0.002342 and 0.002215 and 0.002258
same,second-order,"[1]; time 121 sec, replicates 1-3",0.002679 and 0.002554 and 0.002612
same,second-order,"[1]; time 151 sec, replicates 1-3",0.002904 and 0.002968
same,second-order,"[1]; time 212 sec, replicates 1-3",0.003712 and 0.003583 and 0.003667
same,second-order,"[1]; time 242 sec, replicates 1-3",0.004057 and 0.003913 and 0.004
same,second-order,"[1]; time 273 sec, replicates 1-3",0.00439 and 0.004239 and 0.004347
same,second-order,"[1]; time 303 sec, replicates 1-3",0.004715 and 0.004571 and 0.004691
same,second-order,"[1]; time 333 sec, replicates 1-3",0.005043 and 0.004886 and 0.00503
same,second-order,"[1]; time 364 sec, replicates 1-3",0.005369 and 0.005207 and 0.005358
same,second-order,"[1]; time 394 sec, replicates 1-3",0.005645 and 0.005521 and 0.005712
same,second-order,"[1]; time 424 sec, replicates 1-3",0.005918 and 0.005838 and 0.006051
same,second-order,"[1]; time 454 sec, replicates 1-3",0.006191 and 0.006157 and 0.006365
same,second-order,"[1]; time 485 sec, replicates 1-3",0.006532 and 0.006449 and 0.006705
same,second-order,"[1]; time 515 sec, replicates 1-3",0.006798 and 0.006747 and 0.007019
same,second-order,"[1]; time 545 sec, replicates 1-3",0.007139 and 0.00704 and 0.007306
same,reduction of the amount of N1–E4 dimer by the competitor,[2],35%
same,second-order,[3]; Time 2891 sec,0.0005428 and 0.0004879 and 0.0005765
same,second-order,[3]; Time 3071 sec,0.0005659 and 0.0004944 and 0.0005968
same,second-order,[3]; Time 3252 sec,0.0005928 and 0.000525 and 0.0006178
same,second-order,[3]; Time 3433 sec,0.0006132 and 0.0005166 and 0.0006465
same,second-order,[3]; Time 3613 sec,0.0006269 and 0.0005419 and 0.0006634
same,second-order,[3]; Time 3794 sec,0.0006518 and 0.0005802 and 0.0006849
same,second-order,[3]; Time 3974 sec,0.0006575 and 0.0005747 and 0.00069
same,second-order,[3]; Time 4155 sec,0.0006878 and 0.0006116 and 0.0007283
same,second-order,[3]; Time 4336 sec,0.0007043 and 0.0006446 and 0.000736
same,second-order,[3]; Time 4516 sec,0.0007158 and 0.0006546 and 0.0007684
same,second-order,[3]; Time 4697 sec,0.0007519 and 0.0006931 and 0.0007736
same,second-order,[3]; Time 4878 sec,0.0007648 and 0.000697 and 0.0008077
same,second-order,[3]; Time 5058 sec,0.000772 and 0.0007238 and 0.0008222
same,second-order,[3]; Time 5239 sec,0.0008041 and 0.000747 and 0.0008434
same,second-order,[3]; Time 5419 sec,0.0008239 and 0.0007489 and 0.0008675
same,second-order,[3]; Time 5600 sec,0.0008471 and 0.0007554 and 0.0008837
same,second-order,[3]; Time 5781 sec,0.0008692 and 0.0007775 and 0.0009026
same,second-order,[3]; Time 5961 sec,0.0008692 and 0.000805 and 0.0009333
CCSc1cc2cc(C(=O)CCC(=O)O)sc2cc1OC [Compound E4-ctrl],"secretion of cytokines downstream of STING (interferon-β, CXCL-10, IL-6)",THP-1 Lucia ISG cells,diminished the cytokine inductions
